Laboratory results taken from ChEMBL document CHEMBL4033623, “Synthesis of xanthone derivatives and studies on the inhibition against cancer cells growth and synergistic combinations of them” (Eur J Med Chem, 2017).
Active and inactive are the calls of the source. No cut-off for these calls is given here.

How the values were obtained:
[1] = tested on: MDA-MB-231; assay: Synergistic induction of apoptosis in human MDA-MB-231 cells assessed as necrotic cells at 0.4 uM after 48 hrs in presence of DMXAA by Annexin-V/FITC/PI staining based flow cytometry (reference value: 0.00 %); type: functional
[2] = tested on: MCF7; assay: Synergistic antiproliferative activity against human MCF7 cells at compound to DMXAA mol ratio of 1:1 after 48 hrs by CCK8 assay; type: functional, cell-based; details: MCF7, 48 h
[3] = tested on: MDA-MB-231; assay: Synergistic induction of apoptosis in human MDA-MB-231 cells assessed as necrotic cells at 0.8 uM after 48 hrs in presence of DMXAA by Annexin-V/FITC/PI staining based flow cytometry (reference value: 0.00 %); type: functional
[4] = tested on: MDA-MB-231; assay: Induction of apoptosis in human MDA-MB-231 cells assessed as increase in cleaved PARP expression at 0.2 to 0.8 uM after 48 hrs by Western blot analysis; type: functional, cell-based
[5] = tested on: MDA-MB-231; assay: Induction of apoptosis in human MDA-MB-231 cells assessed as late apoptotic cells at 0.8 uM after 48 hrs by Annexin-V/FITC/PI staining based flow cytometry (reference value: 1.50 %); type: functional
[6] = tested on: MDA-MB-231; assay: Induction of apoptosis in human MDA-MB-231 cells assessed as late apoptotic cells at 0.4 uM after 48 hrs by Annexin-V/FITC/PI staining based flow cytometry (reference value: 1.50 %); type: functional
[7] = tested on: MDA-MB-231; assay: Synergistic induction of apoptosis in human MDA-MB-231 cells assessed as viable cells at 0.8 uM after 48 hrs in presence of DMXAA by Annexin-V/FITC/PI staining based flow cytometry (reference value: 99.95 %); type: functional; details: MDA-MB-231, 48 h, read-out: Activity
[8] = tested on: HepG2; assay: Antiproliferative activity against human HepG2 cells after 48 hrs by CCK8 assay; type: functional, cell-based; details: HepG2, 48 h
[9] = tested on: MDA-MB-231; assay: Decrease in caspase-3 level in human MDA-MB-231 cells at 0.2 to 0.8 uM after 48 hrs by Western blot analysis; type: functional, cell-based
[10] = tested on: K562; assay: Antiproliferative activity against human K562 cells after 48 hrs by CCK8 assay; type: functional, cell-based; details: K562, 48 h
[11] = tested on: MDA-MB-231; assay: Induction of apoptosis in human MDA-MB-231 cells assessed as increase in cleaved caspase-3 expression at 0.2 to 0.8 uM after 48 hrs by Western blot analysis; type: functional, cell-based
[12] = tested on: MDA-MB-231; assay: Synergistic increase in p53 level in human MDA-MB-231 cells at 0.1 to 0.5 uM after 48 hrs in presence of DMXAA by Western blot analysis; type: functional, cell-based
[13] = tested on: MDA-MB-231; assay: Synergistic induction of apoptosis in human MDA-MB-231 cells assessed as early apoptotic cells at 0.2 uM after 48 hrs in presence of DMXAA by Annexin-V/FITC/PI staining based flow cytometry (reference value: 0.05 %); type: functional
[14] = tested on: MDA-MB-231; assay: Synergistic antiproliferative activity against human MDA-MB-231 cells at compound to DMXAA mol ratio of 1:1 after 48 hrs by CCK8 assay; type: functional, cell-based; details: MDA-MB-231, 48 h
[15] = tested on: MDA-MB-231; assay: Synergistic induction of apoptosis in human MDA-MB-231 cells assessed as increase in cleaved caspase-3 level at 0.1 to 0.5 uM after 48 hrs in presence of DMXAA by Western blot analysis; type: functional, cell-based
[16] = tested on: MDA-MB-231; assay: Induction of apoptosis in human MDA-MB-231 cells after 48 hrs in presence of DMXAA by Annexin-V/FITC/PI staining based flow cytometry; type: functional, cell-based
[17] = tested on: MDA-MB-231; assay: Synergistic cell cycle arrest in human MDA-MB-231 cells assessed as accumulation at G2/M phase at 0.2 to 0.8 uM after 48 hrs in presence of DMXAA by propidium iodide staining based flow cytometric method; type: functional
[18] = tested on: COLO 320; assay: Synergistic antiproliferative activity against human COLO320 cells at compound to DMXAA mol ratio of 1:1 after 48 hrs by CCK8 assay; type: functional, cell-based; details: COLO 320, 48 h
[19] = tested on: MDA-MB-231; assay: Induction of apoptosis in human MDA-MB-231 cells assessed as necrotic cells at 0.4 uM after 48 hrs by Annexin-V/FITC/PI staining based flow cytometry (reference value: 1.55 %); type: functional
[20] = tested on: MDA-MB-231; assay: Synergistic induction of apoptosis in human MDA-MB-231 cells assessed as early apoptotic cells at 0.4 uM after 48 hrs in presence of DMXAA by Annexin-V/FITC/PI staining based flow cytometry (reference value: 0.05 %); type: functional

**Q.** With O=c1c2cc(Br)ccc2oc2cc(O)cc(O)c12 as the compound, how does the Activity [1] read?
**A.** The Activity was 22.27%.

**Q.** What about the IC50 [2] of the same compound?
**A.** Its IC50 is 2.41 µM.

**Q.** What about the Activity [3] of the same compound?
**A.** The Activity was 17.47%.

**Q.** What about the Activity [4] of the same compound?
**A.** Its Activity is “Active”.

**Q.** What about the Activity [5] of the same compound?
**A.** Its Activity is 13.71%.

**Q.** What about the Activity [6] of the same compound?
**A.** Its Activity is 11.53%.

**Q.** What about the viability at 0.8 µM [7] of the same compound?
**A.** The viability at 0.8 µM was 41.1%.

**Q.** What about the IC50 [8] of the same compound?
**A.** The IC50 was 9.2 µM.

**Q.** And the Activity [9]?
**A.** The Activity was “Active”.

**Q.** What about the IC50 [10] of the same compound?
**A.** The IC50 was 13.4 µM.

**Q.** And the Activity [11]?
**A.** The Activity was “Active”.

**Q.** What about the Activity [12] of the same compound?
**A.** The Activity was “Active”.

**Q.** And the Activity [13]?
**A.** The Activity was 2.79%.

**Q.** And the IC50 [14]?
**A.** The IC50 was 0.042 µM.

**Q.** And the Activity [15]?
**A.** Its Activity is “Active”.

**Q.** What about the Activity [16] of the same compound?
**A.** The Activity was “Dose-dependent effect”.

**Q.** And the Activity [17]?
**A.** Its Activity is “inactive”.

**Q.** And the IC50 [18]?
**A.** The IC50 was 5.12 µM.

**Q.** What about the Activity [19] of the same compound?
**A.** Its Activity is 38.81%.

**Q.** What about the Activity [20] of the same compound?
**A.** Its Activity is 4.7%.
